Measurements reported in patent US20230355547A1, “STABILIZATION OF VITAMIN A IN A NUTRITIONAL SOLUTION” (BAXTER INTERNATIONAL INC., priority 2020, published 2023).

Assay: Impact of dissolved oxygen on the stability of vitamin A in a 10% soybean lipid emulsion (Example 4)
Type: physicochemical
Conditions: more than 6 months at 40° C., independently of light exposure
Source text: Accordingly, at an oxygen level of about 0.300 ppm vitamin A after 6 months is no longer considered stable, i.e. recovery drops below 80%.
Various methods can be used to determine the DO content of a given solution. Generally, electrochemical or optical sensors are used for determining the DO concentration according to the invention. A preferred method comprises using a fiber-optic oxygen meter such as MICROX TX3, which is a single-channel, temperature-compensated oxygen meter with fiber-optic trace oxygen microsensors based on a glass fiber (e.g. 140 μm). […] For data visualization during measurements, the oxygen meter is connected to a LCD & Data-Logger Unit.
The stability of vitamin A was tested in a 10% soybean lipid emulsion having a peroxide level of below 5 milliequivalents (mEq) O2/kg. The lipid emulsion contained vitamin A in a concentration of 1 dd/25 mL, as well as vitamin E in a concentration of 1 dd/25 mL and the pH was adjusted to 5.9 with HCl.
FIG. 2 depicts the dependency of vitamin A recovery on the presence of dissolved oxygen.

With vitamin A the “stability in the presence of oxygen of above 0.3 ppm” value was “not stable”.
